According to patent US9192656B2, “Methods and compositions for the treatment of cancer” (QUINTESSENCE BIOSCIENCES, INC., priority 2006, dated 2015):

Columns and labels:
[1] = system: non-small cell lung cancer cell line (A549); experiment: In vivo inhibition of tumor growth, A549 xenograft; design: species or system human tumor cells in nude mice; conditions: for Starting volume: at start
Method: (§1) Cells from a non-small cell lung cancer cell line (A549) were grown in nine T175 flasks in F12K media and 10% fetal calf serum until the cells were confluent. 4.5×10^6 cells (in 100 microliters) were injected into the right rear flank of 4-5 week old male homozygous (nu/nu) nude mice (Harlan, Madison Wis.). Tumors were allowed to grow to an average size of ≧75 mm^3 before treatments were initiated. Animals of each tumor type, with the properly sized tumors, were divided into treatment groups, including one set of animals treated weekly with vehicle (phosphate buffered saline, PBS). The vehicle and the test agents were all administered by intraperitoneal injection. Each animal was weighed twice a week during treatment. The tumors were measured twice weekly using calipers. Tumor volume (mm^3) was determined by using the formula for an ellipsoid sphere:
[formula] The efficacy of wild type human RNase 1 is shown relative to cisplatin. The RNase 1 was administered at 75 mg per kg of body weight of the animal once a week (75 mg/kg 1×wk), while the cisplatin was used at 6 mg/kg once a week. The value of n represents the number of animals in the specific treatment arm of the experiment.
(§2) The percent tumor growth inhibition (% TGI) is calculated by: […]
The xenograft model of this example was set up with the human non-small cell lung cancer cell line (A549) as in the previous examples. The efficacy of wild type human RNase 1 is shown relative to tarceva. The RNase 1 was administered at 75 mg per kg of body weight of the animal (75 mg/kg 1×wk) or 150 mg/kg 1×wk. Tarceva was given orally with doses of 50 mg/kg twice a week. The value of n represents the number of animals in the specific treatment arm of the experiment.

[2] = system: human prostate cancer cell line (DU145); experiment: In vivo inhibition of tumor growth, DU145 xenograft; design: species or system human tumor cells in nude mice; conditions: for Starting volume: at start
Method: as §1, with “sphere: […]” for “sphere:”
as §2
This xenograft model was set up as in the previous example except that a human prostate cancer cell line (DU145) was used. The efficacy of wild type human RNase 1 is shown relative to docetaxel. The RNase 1 was administered at 75 mg per kg of body weight of the animal (75 mg/kg 1×wk), while the docetaxel was used at 8 mg/kg once a week. The value of n represents the number of animals in the specific treatment arm of the experiment.
The xenograft model of this example was set up as in the previous example except that a human prostate cancer cell line (DU145) was used. The efficacy of wild type human RNase 1 is shown. The RNase 1 was administered at 75 mg per kg of body weight of the animal once per week (75 mg/kg 1×wk). The value of n represents the number of animals in the specific treatment arm of the experiment.
The xenograft model of this example was set up as in the previous example. The efficacy of wild type human RNase 1 is shown. The RNase 1 was administered at three different doses: (1) 15 mg per kg of body weight of the animal once per week (15 mg/kg 1×wk), (2) 75 mg/kg 1×wk, or (3) 300 mg/kg 1×wk. The value of n represents the number of animals in the specific treatment arm of the experiment.

[3] = system: human breast cancer cell line (MDA-MB-231); experiment: In vivo inhibition of tumor growth, MDA-MB-231 xenograft; design: species or system human tumor cells in nude mice; conditions: Example 10, Table 14, female mice, RNase 1 75 mg/kg 1×wk, doxorubicin 3 mg/kg once per week
Method: as §1, with “sphere: […]” for “sphere:”
as §2
The xenograft model of this example was set up as in the previous example except that a human breast cancer cell line (MDA-MB-231) and female mice were used. The efficacy of wild type human RNase 1 is shown relative to doxorubicin. The RNase 1 was administered at 75 mg per kg of body weight of the animal once per week (75 mg/kg 1×wk), while the doxorubicin was given at 3 mg/kg once per week. The value of n represents the number of animals in the specific treatment arm of the experiment.

tumor = conditions: previous experiments, Cancer Res., 64:4870 [2004]; cited from earlier work
[4] = Example 3, Table 7, i.p., RNase 1 75 mg/kg 1×wk, cisplatin 6 mg/kg once a week
[5] = Example 6, Table 10, 75 mg/kg 1×wk
[6] = Example 6, Table 10, 150 mg/kg 1×wk
[7] = Example 4, Table 8, RNase 1 75 mg/kg 1×wk, docetaxel 8 mg/kg once a week
[8] = Example 8, Table 12, 75 mg/kg 1×wk
[9] = Example 9, Table 13, set up as in the previous example, 15 mg/kg 1×wk
[10] = Example 9, Table 13, set up as in the previous example, 75 mg/kg 1×wk
[11] = Example 9, Table 13, set up as in the previous example, 300 mg/kg 1×wk

Wild type human RNase 1: wild type human ribonuclease 1 (human pancreatic RNase), SEQ ID NO:1
% TGI [1, 4]: 51%
(Final − start) [1, 4]: 149 mm^3
(Final − start)/Control [1, 4]: 0.49
Final volume [1, 4]: 217 mm^3
Starting volume [1, 4]: 68 mm^3
% TGI [1, 5]: 63%
(Final − start) [1, 5]: 300 mm^3
(Final − start)/Control [1, 5]: 0.37
Final volume [1, 5]: 378 mm^3
Starting volume [1, 5]: 78 mm^3
% TGI [1, 6]: 66%
(Final − start) [1, 6]: 276 mm^3
(Final − start)/Control [1, 6]: 0.34
Final volume [1, 6]: 355 mm^3
Starting volume [1, 6]: 79 mm^3
% TGI [2, 7]: 80%
(Final − start) [2, 7]: 478 mm^3
(Final − start)/Control [2, 7]: 0.20
Final volume [2, 7]: 539 mm^3
Starting volume [2, 7]: 61 mm^3
% TGI [2, 8]: 77%
(Final − start) [2, 8]: 607 mm^3
(Final − start)/Control [2, 8]: 0.23
Final volume [2, 8]: 669 mm^3
Starting volume [2, 8]: 62 mm^3
% TGI [2, 9]: 0%
(Final − start) [2, 9]: 1136 mm^3
(Final − start)/Control [2, 9]: 1
Final volume [2, 9]: 1246 mm^3
Starting volume [2, 9]: 110 mm^3
% TGI [2, 10]: 61%
(Final − start) [2, 10]: 445 mm^3
(Final − start)/Control [2, 10]: 0.39
Final volume [2, 10]: 559 mm^3
Starting volume [2, 10]: 114 mm^3
% TGI [2, 11]: 43%
(Final − start) [2, 11]: 652 mm^3
(Final − start)/Control [2, 11]: 0.57
Final volume [2, 11]: 766 mm^3
Starting volume [2, 11]: 114 mm^3
% TGI [3]: 64%
(Final − start) [3]: 50 mm^3
(Final − start)/Control [3]: 0.36
Final volume [3]: 121 mm^3
Starting volume ([3]; at start): 71 mm^3
reduction in tumor volume (tumor): did not demonstrate a reduction in tumor volume
